Among the data in US4777250A, “Chymotrypsin model” (Northwestern University, priority 1986, dated 1988) are kcat, Km and kcat/Km values, retold here.

A short description of series [1]: Hydrolysis of esters by artificial chymotrypsin (Lineweaver-Burk). In kind it is biochemical. The conditions noted are these: substrate m-t-butylphenyl acetate. The source says: The chymotrypsin model was examined for its catalytic activity in ester hydrolysis.
In FIG. 2 plot A represents the hydrolysis of p-nitrophenyl acetate by chymotrypsin and plot B represents the hydrolysis of m-t-butylphenyl acetate by the miniature organic model of chymotrypsin. [EA ]=1×10^-5 M; [EB ]=3×10^-5 M.
FIG. 3 depicts the relative stability of both β-benzyme/m-t-butylphenyl acetate and α-chymotrypsin/p-nitrophenyl acetate (O) at elevated temperatures. The real enzyme has 245 amino acids whose conformation can be changed by disrupting hydrogen bonds by elevated temperature. In contrast, the artificial chymotrypsin has no amino acids. Abbreviations are explained by the equation [formula] The stability was obtained by determining the catalytic rate constant at various temperatures at pH 8.0 for chymotrypsin, using 400 nm with a Varian 200 spectrophotometer. β-benzyme activity for the artificial enzyme was determned at its optimum pH 10.7 and 288 nm.

Series [2] concerns CC(=O)Oc1ccc([N+](=O)[O-])cc1. Put plainly: purified protein, by the assay type. To be noted: other: pH 8.0 (optimum pH), substrate p-nitrophenyl acetate, error limit ± 10%.

Broadly, the kcat is the maximal rate divided by the concentration of active sites. As a reminder, the Km is the substrate concentration at which the rate is half of its maximum. As usually defined, the kcat/Km is the second-order rate constant that governs catalysis at low substrate concentration. As for `CC(=O)Oc1cccc(C(C)(C)C)c1` [m-t-butylphenyl acetate], the catalytic constant (kcat) in series [1] (pH 10.7 (optimum pH), error limit ± 5%) was 0.028 s⁻¹. The Km in series [1] (pH 10.7 (optimum pH), error limit ± 10%) worked out at 133 µM. In addition, the kcat/Km in series [1] (pH 10.7) was determined as 210 M⁻¹ s⁻¹.
As for “chymotrypsin (real enzyme, α-chymotrypsin) (Bos taurus)”, in series [2], the Km turned out to be 40 µM, the turnover number (kcat) worked out at 0.011 s⁻¹ and the kcat/Km is 275 M⁻¹ s⁻¹.
